The results in this text go back to patent publication US20210323977A1, “PYRROLIDINYL AMIDE COMPOUNDS FOR THE TREATMENT OF AUTOIMMUNE DISEASE” (Hoffmann-La Roche Inc., priority 2018, published 2021).

The target of this test is T1, human TLR8 (Homo sapiens, UniProt Q9NR97).
T1 sequence (Q9NR97 27-1041): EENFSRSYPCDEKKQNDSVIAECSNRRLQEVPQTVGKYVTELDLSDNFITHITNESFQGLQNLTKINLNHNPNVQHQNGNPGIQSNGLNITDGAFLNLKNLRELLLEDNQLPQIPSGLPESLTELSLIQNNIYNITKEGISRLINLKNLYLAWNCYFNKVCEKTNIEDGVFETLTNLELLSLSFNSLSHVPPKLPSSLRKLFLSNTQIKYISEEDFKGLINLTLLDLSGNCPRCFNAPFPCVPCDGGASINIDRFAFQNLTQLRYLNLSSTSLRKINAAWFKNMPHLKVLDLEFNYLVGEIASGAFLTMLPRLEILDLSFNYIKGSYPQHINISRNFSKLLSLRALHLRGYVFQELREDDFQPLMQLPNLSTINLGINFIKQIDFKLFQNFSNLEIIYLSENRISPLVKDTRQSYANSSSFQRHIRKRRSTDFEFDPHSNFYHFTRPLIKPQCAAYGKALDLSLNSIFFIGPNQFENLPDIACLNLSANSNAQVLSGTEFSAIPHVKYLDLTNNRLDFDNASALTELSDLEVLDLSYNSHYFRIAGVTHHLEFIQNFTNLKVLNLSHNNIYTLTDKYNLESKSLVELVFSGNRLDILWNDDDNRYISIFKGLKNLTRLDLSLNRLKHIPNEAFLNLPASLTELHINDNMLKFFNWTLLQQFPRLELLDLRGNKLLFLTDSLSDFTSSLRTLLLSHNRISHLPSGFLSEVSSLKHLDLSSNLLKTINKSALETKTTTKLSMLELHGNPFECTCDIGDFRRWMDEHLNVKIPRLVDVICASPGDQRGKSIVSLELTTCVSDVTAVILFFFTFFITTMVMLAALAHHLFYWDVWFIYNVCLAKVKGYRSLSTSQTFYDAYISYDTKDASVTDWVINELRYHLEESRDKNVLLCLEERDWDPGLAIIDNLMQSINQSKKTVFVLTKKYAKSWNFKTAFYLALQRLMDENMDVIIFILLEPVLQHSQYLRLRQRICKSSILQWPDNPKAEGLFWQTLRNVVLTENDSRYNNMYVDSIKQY
The experiment in a line: HEK293-Blue-hTLR-8 cells assay. Type of test: cell-based. Particulars: HEK293-Blue-hTLR8 cells, SEAP reporter, R848 stimulation, 20 hrs. The text has this: HEK293-Blue-hTLR-8 Cells Assay:
A stable HEK293-Blue-hTLR-8 cell line was purchased from InvivoGen (Cat. #: hkb-htlr8, San Diego, Calif., USA). These cells were originally designed for studying the stimulation of human TLR8 by monitoring the activation of NF-κB. A SEAP (secreted embryonic alkaline phosphatase) reporter gene was placed under the control of the IFN-β minimal promoter fused to five NF-κB and AP-1-binding sites. The SEAP was induced by activating NF-κB and AP-1 via stimulating HEK-Blue hTLR8 cells with TLR8 ligands. Therefore the reporter expression was declined by TLR8 antagonist under the stimulation of a ligand, such as R848, for incubation of 20 hrs. The cell culture supernatant SEAP reporter activity was determined using QUANTI-Blue™ kit (Cat. #: rep-qb1, Invivogen, San Diego, Ca, USA) at a wavelength of 640 nm, a detection medium that turns purple or blue in the presence of alkaline phosphatase.
HEK293-Blue-hTLR8 cells were incubated at a density of 250,000-450,000 cells/mL in a volume of 170 μL in a 96-well plate in Dulbecco's Modified Eagle's medium (DMEM) containing 4.5 g/L glucose, 50 U/mL penicillin, […], […], 2 mM L-glutamine, 10% (v/v) heat-inactivated fetal bovine serum with addition of 20 μL test compound in a serial dilution in the presence of final DMSO at 1% and 10 sL of 60 uM R848 in above DMEM, perform incubation under 37° C. in a CO2 incubator for 20 hrs. Then 20 μL of the supernatant from each well was incubated with 180 sL Quanti-blue substrate solution at 37° C. for 2 hrs and the absorbance was read at 620˜655 nm using a spectrophotometer. The signalling pathway that TLR8 activation leads to downstream NF-κB activation has been widely accepted, and therefore similar reporter assay was modified for evaluating TLR8 antagonist.
Turning to `C[C@H]1CN(c2ccc(C#N)c3ncccc23)C[C@@H]1C(=O)NC1CCN(C)CC1` [Example 16, (3R,4R)-1-(8-cyano-5-quinolyl)-4-methyl-N-(1-methyl-4-piperidyl)pyrrolidine-3-carboxamide], the IC50 (usually the point on the concentration scale where inhibition reaches its midpoint) worked out at 72 nM.
Compound `N#Cc1ccc(N2C[C@@H](C(F)(F)F)[C@H](C(=O)N[C@H]3CNC[C@H]3F)C2)c2cccnc12` [Example 47, Trans-1-(8-cyano-5-quinolyl)-N-[(3S,4R)-4-fluoropyrrolidin-3-yl]-4-(trifluoromethyl)pyrrolidine-3-carboxamide] had an IC50 of 404 nM.
Compound `CN1CCC(NC(=O)[C@@H]2CN(c3ccc(C#N)c4ncccc34)C[C@H]2C(F)(F)F)CC1` (relative stereo) [Example 17, Trans-1-(8-cyano-5-quinolyl)-N-(1-methyl-4-piperidyl)-4-(trifluoromethyl)pyrrolidine-3-carboxamide] displayed an IC50 of 66 nM.
For `N#Cc1ccc(N2C[C@H](C(=O)NC3CCN(C4CCNCC4)CC3)[C@@H](C(F)(F)F)C2)c2nccnc12` [Example 35, (3R,4R)-1-(8-Cyanoquinoxalin-5-yl)-N-[1-(4-piperidyl)-4-piperidyl]-4-(trifluoromethyl)pyrrolidine-3-carboxamide] the value was 38 nM.
The result for `C[C@H]1CN(c2ccc(C#N)n3nccc23)C[C@@H]1C(=O)NC1CCN(C)CC1` [Example 44, (3R,4R)-1-(7-cyanopyrazolo[1,5-a]pyridin-4-yl)-4-methyl-N-(1-methyl-4 piperidyl)pyrrolidine-3-carboxamide] reads 404 nM.
For `C[C@@H]1CN(c2ccc(C#N)c3ncccc23)C[C@H]1C(=O)N1CCC2(CCNC2)C1` (relative stereo) [Example 53, Trans-5-[3-(2,7-diazaspiro[4.4]nonane-2-carbonyl)-4-methyl-pyrrolidin-1-yl]quinoline-8-carbonitrile] the value was 225 nM; for `CN(C)CC1CC(NC(=O)C2CN(c3ccc(C(F)(F)F)c4nccnc34)CC23CC3)C1` (stereo not shown) [Example 26, N-[3-[(dimethylamino)methyl]cyclobutyl]-5-[8-(trifluoromethyl)quinoxalin-5-yl]-5-azaspiro[2.4]heptane-7-carboxamide], 44 nM.
